Experimental data reported in article PMC11062899, “De novo development of small cyclic peptides that are orally bioavailable” (Nature Chemical Biology, 2023).
“And” between values parts separate entries of the source, which are not always exact repeats. Equal entries are not always repeated.

What was measured:
human α-thrombin = human α-thrombin (Homo sapiens, UniProt P00734); test: Protease inhibition, Ki for human α-thrombin (fluorogenic substrate Z-Gly-Gly-Arg-AMC); type: biochemical; conditions: replicates R1-R3
Outline: (§1)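 Ki values come from Cheng–Prusoff correction of IC50, itself fitted by four-parameter logistic regression of activity versus a no-peptide control. Assays used 2 nM human or 3 nM rat thrombin, 50 μM Z-Gly-Gly-Arg-AMC, 30 min kinetic fluorescence at 25 °C.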

rat α-thrombin = molecular target: T1, rat α-thrombin (Rattus norvegicus, UniProt P18292); test: Protease inhibition, Ki for rat α-thrombin (fluorogenic substrate Z-Gly-Gly-Arg-AMC); type: biochemical; conditions: replicates R1-R3
T1 construct: rat α-thrombin (Molecular Innovations) were used at final concentrations of 2 nM and 3 nM; purchased Molecular Innovations
Outline: as §1

[1] = Metabolic stability in rat liver microsomes (RLMs); conditions: rat, microsomes
porcine pepsin = molecular target: T2, porcine pepsin (Sus scrofa, UniProt P00791); test: Peptide stability in simulated gastric fluid (SGF); type: in vitro ADME; conditions: for SGF stability, Residual peptide Average / SGF stability, Residual peptide: after 8 h vs 0 h (TIC); for SGF stability, Residual peptide Average: average of R1-R3; for SGF stability, Residual peptide: single replicates R1-R3; for remaining at 8 h: simulated gi fluid, 37 °C, pH 1.2, read-out: Proteolytic stability: SGF (8 h) % remaining
T2 construct: 0.32 g of porcine pepsin (Sigma-Aldrich, P7125) was dissolved under gentle agitation; purchased Sigma-Aldrich P7125
T2 sequence (P00791 60-385): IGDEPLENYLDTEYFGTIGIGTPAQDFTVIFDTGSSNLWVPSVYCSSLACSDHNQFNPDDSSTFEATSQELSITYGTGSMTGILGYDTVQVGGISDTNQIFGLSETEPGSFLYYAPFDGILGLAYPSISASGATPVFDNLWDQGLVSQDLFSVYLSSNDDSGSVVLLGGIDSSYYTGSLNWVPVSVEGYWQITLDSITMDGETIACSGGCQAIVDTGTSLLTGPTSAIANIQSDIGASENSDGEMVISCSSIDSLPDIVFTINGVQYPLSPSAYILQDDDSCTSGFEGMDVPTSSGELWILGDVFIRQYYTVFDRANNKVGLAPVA
Protocol: (§2) Simulated gastric and intestinal fluids were prepared according to the States Pharmacopeia specifications (Test Solutions, United States Pharmacopeia 35, NF 30, 2012). SGF: 0.2 g of sodium chloride was dissolved in 50 ml of water, and the pH was adjusted to 1.2 by addition of 0.7 ml of 10 M hydrochloric acid. Then, 0.32 g of porcine pepsin (Sigma-Aldrich, P7125) was dissolved under gentle agitation, and the volume was filled up to 100 ml with Milli-Q water. SIF: 0.68 g of monobasic potassium phosphate was dissolved in 25 ml of Milli-Q water, and the pH was adjusted to 6.8 by adding 7.7 ml of a 0.2 M sodium hydroxide solution. Next, 1 g of porcine pancreatin (Sigma-Aldrich, P3292) was added under gentle agitation, and the volume was adjusted to 100 ml with Milli-Q water to afford a fine suspension. To test the stability in simulated gastrointestinal fluids, 396 μl of SGF or SIF was pre-heated at 37 °C for 10 min, and 4 μl of a 1 mM peptide solution in DMSO was added. […] Supernatant was analyzed by LC–MS to measure the peptide concentrations at the different timepoints. Residual peptide was calculated by normalizing the concentrations measured at T1 to T0.

[2] = Peptide stability in simulated intestinal fluid (SIF); type: in vitro ADME, porcine; conditions: simulated gi fluid; 8 h, 37 °C, pH 6.8; read-out: Proteolytic stability: SIF (8 h) % remaining
Protocol: as §2

porcine pancreatin = test: as above; type: in vitro ADME; conditions: after 8 h vs 0 h (TIC); average of R1-R3
Protocol: as §2

[3] = Passive artificial membrane permeability (PAMPA); conditions: for PAMPA permeability: % permeability: 50 μM, 12–18 h, acceptor concentration relative to equilibrium; for Papp at 50 μM / Permeability% Average / Permeability% R1 / Permeability% R3: PAMPA; for Papp at 50 μM: pH 7.4; for Permeability% Average: average of R1-R3; for Permeability% R1: replicate R1; for Permeability% R1 / Permeability% R3: TIC of top well sample relative to sample at theoretical equilibrium; for Permeability% R3: replicate R3
[4] = peptide 1.33E+02 uM, slope of proteolytic substrate cleavage over time
[5] = CL (ul/min/mg protein) R1, RLM CL, replicate R1
[6] = CL (ul/min/mg protein) R2, RLM CL, replicate R2
[7] = CL (ul/min/mg protein) R3, RLM CL, replicate R3
[8] = Half Life (min) R1, RLM metabolic stability, replicate R1, 0-60 min
[9] = Half Life (min) R2, RLM metabolic stability, replicate R2, 0-60 min
[10] = Half Life (min) R3, RLM metabolic stability, replicate R3, 0-60 min
[11] = Metabolic stability: Half life T1/2 (min), RLMs, mean and SD, three measurements
[12] = Metabolic stability: RLM CL (ul/min/mg), RLMs, mean and SD, three measurements

## O=C1CC2CCN(CC2)C(=O)[C@H](Cc2ccccc2)NC(=O)[C@@H](NC(=O)c2ccc(Cl)s2)CSCc2cccc(n2)CSCCN1 [compound 15]
Human α-thrombin; peptide 1.02E-03 uM
  Human alpha thrombin inhibition, slope normalized to DMSO: 100.6 and 98.3 and 99.0
Human α-thrombin; peptide 1.04E+00 uM
  Human alpha thrombin inhibition, slope normalized to DMSO: 68.1 and 68.7 and 68.9
Human α-thrombin; peptide 1.27E-04 uM
  Human alpha thrombin inhibition, slope normalized to DMSO: 101.1 and 97.6 and 104.9
Human α-thrombin; peptide 1.30E-01 uM
  Human alpha thrombin inhibition, slope normalized to DMSO: 90.7 and 100.7 and 97.5
Human α-thrombin; [4]
  Human alpha thrombin inhibition, slope normalized to DMSO: 4.8 and 5.5 and 1.6
Human α-thrombin; peptide 1.63E-02 uM
  Human alpha thrombin inhibition, slope normalized to DMSO: 110.6 and 96.8 and 100.1
Human α-thrombin; peptide 1.67E+01 uM
  Human alpha thrombin inhibition, slope normalized to DMSO: 12.1 and 12.4 and 14.6
Human α-thrombin; peptide 2.03E-03 uM
  Human alpha thrombin inhibition, slope normalized to DMSO: 101.2 and 99.3 and 100.0
Human α-thrombin; peptide 2.08E+00 uM
  Human alpha thrombin inhibition, slope normalized to DMSO: 65.0 and 52.9 and 51.5
Human α-thrombin; peptide 2.54E-04 uM
  Human alpha thrombin inhibition, slope normalized to DMSO: 99.3 and 97.7 and 101.2
Human α-thrombin; peptide 2.60E-01 uM
  Human alpha thrombin inhibition, slope normalized to DMSO: 95.0 and 89.4 and 94.7
Human α-thrombin; peptide 3.18E-05 uM
  Human alpha thrombin inhibition, slope normalized to DMSO: 97.8 and 94.7 and 100.8
Human α-thrombin; peptide 3.26E-02 uM
  Human alpha thrombin inhibition, slope normalized to DMSO: 94.1 and 101.2 and 106.3
Human α-thrombin; peptide 3.33E+01 uM
  Human alpha thrombin inhibition, slope normalized to DMSO: 8.2 and 10.1 and 12.2
Human α-thrombin; peptide 4.07E-03 uM
  Human alpha thrombin inhibition, slope normalized to DMSO: 102.2 and 130.5 and 101.9
Human α-thrombin; peptide 4.17E+00 uM
  Human alpha thrombin inhibition, slope normalized to DMSO: 34.4 and 33.3 and 35.3
Human α-thrombin; peptide 5.09E-04 uM
  Human alpha thrombin inhibition, slope normalized to DMSO: 99.7 and 107.7 and 101.3
Human α-thrombin; peptide 5.21E-01 uM
  Human alpha thrombin inhibition, slope normalized to DMSO: 82.1 and 87.9 and 83.3
Human α-thrombin; peptide 6.36E-05 uM
  Human alpha thrombin inhibition, slope normalized to DMSO: 100.1 and 97.7 and 104.2
Human α-thrombin; peptide 6.51E-02 uM
  Human alpha thrombin inhibition, slope normalized to DMSO: 100.7 and 90.2 and 100.6
Human α-thrombin; peptide 6.67E+01 uM
  Human alpha thrombin inhibition, slope normalized to DMSO: 5.7 and 5.6 and 9.1
Human α-thrombin; peptide 8.14E-03 uM
  Human alpha thrombin inhibition, slope normalized to DMSO: 98.8 and 99.9 and 103.6
Human α-thrombin; peptide 8.33E+00 uM
  Human alpha thrombin inhibition, slope normalized to DMSO: 23.8 and 18.1 and 21.3
Rat α-thrombin; [4]
  Rat alpha thrombin inhibition, slope normalized to DMSO: 1.8 and 3.0 and 9.6
Rat α-thrombin; peptide 1.67E+01 uM
  Rat alpha thrombin inhibition, slope normalized to DMSO: 7.1 and 6.4 and 13.3
Rat α-thrombin; peptide 2.08E+00 uM
  Rat alpha thrombin inhibition, slope normalized to DMSO: 34.4 and 33.4 and 32.9
Rat α-thrombin; peptide 3.33E+01 uM
  Rat alpha thrombin inhibition, slope normalized to DMSO: 4.1 (2×) and 10.8
Rat α-thrombin; peptide 4.17E+00 uM
  Rat alpha thrombin inhibition, slope normalized to DMSO: 21.9 and 19.6 and 23.7
Rat α-thrombin; peptide 6.67E+01 uM
  Rat alpha thrombin inhibition, slope normalized to DMSO: 2.7 and 2.8 and 9.5
Rat α-thrombin; peptide 8.33E+00 uM
  Rat alpha thrombin inhibition, slope normalized to DMSO: 12.5 and 11.7 and 18.6
[1]; [5]
  microsomal CLint: 87.8 µL/min/mg
[1]; [6]
  microsomal CLint: 76.3 µL/min/mg
[1]; [7]
  microsomal CLint: 81.9 µL/min/mg
[1]; [8]
  half-life: 15.8 min
[1]; [9]
  half-life: 18.2 min
[1]; [10]
  half-life: 16.9 min
[1]; [11]
  half-life: 17 ± 1 min
[1]; [12]
  microsomal CLint: 82 ± 5 µL/min/mg
Porcine pepsin
  SGF stability, Residual peptide Average: 98.62
  SGF stability, Residual peptide: 100.84 and 98.47 and 96.53
  remaining at 8 h: 99 ± 2%
[2]
  remaining at 8 h: 88 ± 18%
Porcine pancreatin
  SIF stability, Residual peptide Average: 87.61
[3]
  PAMPA permeability: % permeability: 20 ± 10%
  Papp at 50 μM: 13.5 nm/s
  Permeability% Average: 20.3%
  Permeability% R1: 29.62%
  Permeability% R3: 22.19%

## O=C(N[C@H]1CSCCS(=O)(=O)CCSCCNC(=O)C2(CC2)CNC(=O)[C@H](Cc2ccccc2)NC1=O)c1ccc(Cl)s1 [compound 16]
Human α-thrombin; peptide 1.02E-03 uM
  Human alpha thrombin inhibition, slope normalized to DMSO: 95.7 (2×) and 101.7
Human α-thrombin; peptide 1.04E+00 uM
  Human alpha thrombin inhibition, slope normalized to DMSO: 62.0 and 61.5 and 59.7
Human α-thrombin; peptide 1.27E-04 uM
  Human alpha thrombin inhibition, slope normalized to DMSO: 99.4 and 101.3 and 98.3
Human α-thrombin; peptide 1.30E-01 uM
  Human alpha thrombin inhibition, slope normalized to DMSO: 89.0 and 89.6 and 91.9
Human α-thrombin; [4]
  Human alpha thrombin inhibition, slope normalized to DMSO: 4.8 and 2.4 and 6.7
Human α-thrombin; peptide 1.63E-02 uM
  Human alpha thrombin inhibition, slope normalized to DMSO: 103.7 and 97.9 and 94.4
Human α-thrombin; peptide 1.67E+01 uM
  Human alpha thrombin inhibition, slope normalized to DMSO: -1.3 and 11.2 and 10.7
Human α-thrombin; peptide 2.03E-03 uM
  Human alpha thrombin inhibition, slope normalized to DMSO: 102.2 and 96.9 and 97.7
Human α-thrombin; peptide 2.08E+00 uM
  Human alpha thrombin inhibition, slope normalized to DMSO: 40.1 and 46.6 and 47.4
Human α-thrombin; peptide 2.54E-04 uM
  Human alpha thrombin inhibition, slope normalized to DMSO: 100.3 and 97.2 and 96.3
Human α-thrombin; peptide 2.60E-01 uM
  Human alpha thrombin inhibition, slope normalized to DMSO: 83.3 and 73.2 and 85.9
Human α-thrombin; peptide 3.18E-05 uM
  Human alpha thrombin inhibition, slope normalized to DMSO: 101.8 and 98.5 and 103.1
Human α-thrombin; peptide 3.26E-02 uM
  Human alpha thrombin inhibition, slope normalized to DMSO: 95.9 and 94.2 and 94.5
Human α-thrombin; peptide 3.33E+01 uM
  Human alpha thrombin inhibition, slope normalized to DMSO: 6.5 (2×) and 8.7
Human α-thrombin; peptide 4.07E-03 uM
  Human alpha thrombin inhibition, slope normalized to DMSO: 101.7 and 97.8 and 102.2
Human α-thrombin; peptide 4.17E+00 uM
  Human alpha thrombin inhibition, slope normalized to DMSO: 27.0 and 27.6 and 28.2
Human α-thrombin; peptide 5.09E-04 uM
  Human alpha thrombin inhibition, slope normalized to DMSO: 97.5 and 98.8 and 97.2
Human α-thrombin; peptide 5.21E-01 uM
  Human alpha thrombin inhibition, slope normalized to DMSO: 78.3 and 65.6 and 76.6
Human α-thrombin; peptide 6.36E-05 uM
  Human alpha thrombin inhibition, slope normalized to DMSO: 105.9 and 99.3 and 96.8
Human α-thrombin; peptide 6.51E-02 uM
  Human alpha thrombin inhibition, slope normalized to DMSO: 92.3 and 91.0 and 94.1
Human α-thrombin; peptide 6.67E+01 uM
  Human alpha thrombin inhibition, slope normalized to DMSO: 5.1 and 4.9 and 7.0
Human α-thrombin; peptide 8.14E-03 uM
  Human alpha thrombin inhibition, slope normalized to DMSO: 97.0 (2×) and 91.0
Human α-thrombin; peptide 8.33E+00 uM
  Human alpha thrombin inhibition, slope normalized to DMSO: 19.7 and 13.2 and 20.2
Rat α-thrombin; [4]
  Rat alpha thrombin inhibition, slope normalized to DMSO: 3.3 and 2.8 and 2.1
Rat α-thrombin; peptide 1.67E+01 uM
  Rat alpha thrombin inhibition, slope normalized to DMSO: 6.6 and 5.4 and 5.1
Rat α-thrombin; peptide 2.08E+00 uM
  Rat alpha thrombin inhibition, slope normalized to DMSO: 33.9 and 33.4 and 32.2
Rat α-thrombin; peptide 3.33E+01 uM
  Rat alpha thrombin inhibition, slope normalized to DMSO: 4.4 and 3.4 and 3.5
Rat α-thrombin; peptide 4.17E+00 uM
  Rat alpha thrombin inhibition, slope normalized to DMSO: 19.8 and 18.5 and 18.4
Rat α-thrombin; peptide 6.67E+01 uM
  Rat alpha thrombin inhibition, slope normalized to DMSO: 3.3 and 1.7 and 2.4
Rat α-thrombin; peptide 8.33E+00 uM
  Rat alpha thrombin inhibition, slope normalized to DMSO: 11.8 and 11.2 and 10.2
[1]; [5]
  microsomal CLint: 61 µL/min/mg
[1]; [6]
  microsomal CLint: 51.4 µL/min/mg
[1]; [7]
  microsomal CLint: 62.2 µL/min/mg
[1]; [8]
  half-life: 22.7 min
[1]; [9]
  half-life: 26.9 min
[1]; [10]
  half-life: 22.3 min
[1]; [11]
  half-life: 24 ± 2 min
[1]; [12]
  microsomal CLint: 58 ± 5 µL/min/mg
Porcine pepsin
  SGF stability, Residual peptide Average: 98.52
  SGF stability, Residual peptide: 104.99 and 99.11 and 91.47
  remaining at 8 h: 99 ± 7%
[2]
  remaining at 8 h: 6.3 ± 1.9%
Porcine pancreatin
  SIF stability, Residual peptide Average: 6.32
[3]
  PAMPA permeability: % permeability: 8.6 ± 3.0%
  Papp at 50 μM: 5.75 nm/s
  Permeability% Average: 8.6%
  Permeability% R1: 11.91%
  Permeability% R3: 7.66%
